Test results as given in patent US20220031700A1, “Treatment of Acute Respiratory Distress Syndrome (ARDS)” (priority 2020, published 2022).
Entries after “also recorded” stand apart in the source; their conditions may differ.

How the values were obtained:
[1] = in vivo; details: mouse
[2] = system: total IgM; assay: Serum total IgM by ELISA in experimental influenza model; details: influenza 6.5 Lg EID50 IN; 100 mg/kg IP QD 12 days; Day 12; compared to influenza-infected/vehicle treated controls
[3] = system: TNF-alpha; assay: Plasma TNF-alpha level by ELISA after intranasal LPS challenge; assay type: in vivo, mouse; details: Example 2; 100 mg/kg IP, all dosing paradigms; comparison to LPS/vehicle group
Protocol: (§1) Intranasal administration of LPS: The LPS challenge was carried out according to Ma et al. (2019).
(§2) Compound dosing: Animals in groups 2-5 were dosed according to the Table 2 for 6 days. Group 3 animals received 6 doses of MLR-1023 QD and a 7th dose 1 hour prior to LPS. Group 4 animals received 6 doses of MLR-1023 QD and Vehicle 1 hour prior to LPS. Group 5 animals received 6 Vehicle doses QD and 1 dose of MLR-1023 1 hour prior to LPS. On day 7, 1 hour after the last dose, animals were intranasally treated with LPS. Six hours after the instillation of LPS, animals received an IV dose of EBD. Thirty minutes later, animals were sacrificed, and the lungs were collected as previously described.

[4] = system: mouse model of cytokine storm; assay: Evans Blue dye (EBD) assay of lung after intranasal LPS challenge; assay type: in vivo
[5] = system: IL-6; assay: Plasma IL-6 level by ELISA after intranasal LPS challenge; assay type: in vivo, mouse; details: Example 2; 100 mg/kg IP, all dosing paradigms; comparison to LPS/vehicle group
Protocol: as §1, §2

[6] = system: total IgG; assay: Serum total IgG by ELISA in experimental influenza model; details: influenza 6.5 Lg EID50 IN; 100 mg/kg IP QD 12 days; Day 12; compared to influenza-infected/vehicle treated controls
[7] = system: mouse model of cytokine storm; assay: Lung Wet/Dry ratio assay after intranasal LPS challenge; assay type: in vivo; details: LPS 50 μg IN, compared to LPS/Vehicle group
Protocol: Intranasal administration of LPS: The LPS challenge was carried out according to Ma et al., Inflammation, 2019, 42, 1901-1912.
Compound dosing: Animals in groups 2-5 were dosed according to the Table 1 for 6 days. On day 7, 1 hour after the last dose, animals were intranasally treated with LPS. Dexamethasone (20 mg/kg PO) was administered 1 hour prior to LPS treatment. Six hours after the instillation of LPS, animals received an IV dose of EBD. Thirty minutes later, animals were sacrificed, and the lungs were collected as previously described.
as §1, §2

[8] = system: Influenza-specific antibody; assay: Serum influenza-specific antibody by ELISA in experimental influenza model; details: influenza 6.5 Lg EID50 IN; 100 mg/kg IP QD 12 days; Day 12; compared to influenza-infected/vehicle treated controls

Structure (SMILES): Cc1cccc(Oc2cnc(=O)[nH]c2)c1 [MLR-1023, tolimidone]
- half-life [1]: ~1.5 h
- serum total IgM level [2]: did not alter
- plasma TNF-α concentration [3]: did not produce significant effects
- Evans Blue content in the lung ([4]; Example 1, C57Bl/6J male mice, LPS 50 μg IN, MLR-1023 30 and 100 mg/kg IP QD 7 days, last dose 1 hr prior to LPS, dexamethasone 20 mg/kg PO 1 hr prior to LPS, compared to LPS/Vehicle group): greater than that of dexamethasone and comparable to that of animals that received no LPS; also recorded: significant dose dependent decrease
- Evans Blue dye content in the lungs (plasma extravasation) ([4]; Example 2, 100 mg/kg IP QD, 6 doses plus acute dose 1 hour before LPS challenge (7×), relative to the 6-dose paradigm): comparable level of reduced plasma extravasation
- Evans Blue dye content in the lungs ([4]; Example 2, 100 mg/kg IP QD, 6 doses, vehicle 1 hr prior to LPS (6×), compared to LPS/Vehicle group): significant decrease
- Evans Blue dye content in the lungs (plasma extravasation) ([4]; Example 2, 100 mg/kg IP, single dose 1 hr prior to LPS challenge (1×)): did not yield reduction
- plasma IL-6 concentration [5]: did not produce significant effects
- serum total IgG level [6]: did not alter
- wet/dry ratio of the lung ([7]; Example 1, C57Bl/6J male mice, MLR-1023 30 and 100 mg/kg IP QD 7 days, last dose 1 hr prior to LPS, dexamethasone 20 mg/kg PO 1 hr prior to LPS): significant dose dependent decrease
- wet/dry ratio of the lung ([7]; Example 2, 100 mg/kg IP, all dosing paradigms (7×, 6×, 1×)): significant decrease
- serum influenza-specific antibody level [8]: did not alter
